Results from US11833160B2, “Ursodeoxycholic acid derivatives as HDAC inhibitors for the treatment of polycystic diseases” (UNIVERSIDAD DEL PAIS VASCO/EUSKAL HERRIKO UNIBERTSITATEA, priority 2017, dated 2023).
pIC50: −log10 of the molar value.

Key:
[1] = target: T1, human HDAC3/NcoR2 (Homo sapiens, UniProt O15379); assay: HDAC3 enzymatic activity assay (fluorogenic peptide); type: biochemical; conditions: 10-dose, 3-fold serial dilution, triplicate
T1 construct: human HDAC3 complex, full length with His C-terminal tag, MW=49.7 kDa; His (C); purchased BioMol SE-507; host or cells: baculovirus expression system
Procedure: (§1) Peptide substrates: all HDAC assays were performed using acetylated peptide substrates labeled with 7-amino-4-methylcoumarin (AMC): • Substrate for isoforms HDAC1, 2, 3, 6, 10, 11, and HeLa nuclear extract assays: acetylated fluorogenic peptide from p53 residues 379-382 (RHKKAc). • Substrate for isoforms HDAC4, 5, 7, 9: fluorogenic Boc-L-Lys (s-trifluoroacetyl)-AMC. • Substrate for HDAC8 assays: acetylated fluorogenic peptide from p53 residues 379-382 (RHKAcKAc).
(§2) 50 μl of peptide substrate (see “peptide substrates” section above) and an optimal concentration of the corresponding enzyme (see “enzymes” section above) in the assay buffer at a final DMSO concentration of 1% were incubated in the presence of gradient concentrations of inhibitors (10-dose IC50 mode with 3-fold serial dilution) at 30° C. for 2 hours. The reactions were carried out in a 96-well microplate for fluorometry in a 50 μl reaction volume. After the deacetylation reaction, Fluor-de-Lys-Developer (BioMol Cat. #KI-105) was added to each well to digest the deacetylated substrate, thereby producing the fluorescent signal. The reaction was carried out for 45 minutes at 30° C. with 5% CO2; the fluorescent signal was then measured using an excitation wavelength of 360 nm and an emission wavelength of 460 nm in a microplate-reading fluorometer (GeminiXS, Molecular Devices, Sunnyvale, CA). […]

[2] = target: T2, human HDAC2 (Homo sapiens, UniProt Q92769); assay: HDAC2 enzymatic activity assay (fluorogenic peptide); type: biochemical; conditions: 10-dose, 3-fold serial dilution, triplicate
T2 construct: His (C); purchased BioMol SE-500; host or cells: baculovirus / Sf9 cells
Procedure: as §1
(§3) 50 μl of peptide substrate (see “peptide substrates” section above) and an optimal concentration of the corresponding enzyme (see “enzymes” section above) in the assay buffer at a final DMSO concentration of 1% were incubated in the presence of gradient concentrations of inhibitors (10-dose IC50 mode with 3-fold serial dilution) at 30° C. for 2 hours. The reactions were carried out in a 96-well microplate for fluorometry in a 50 μl reaction volume. After the deacetylation reaction, Fluor-de-Lys-Developer (BioMol Cat. #KI-105) was added to each well to digest the deacetylated substrate, thereby producing the fluorescent signal. The reaction was carried out for 45 minutes at 30° C. with 5% CO2; the fluorescent signal was then measured using an excitation wavelength of 360 nm and an emission wavelength of 460 nm in a microplate-reading fluorometer (GeminiXS, Molecular Devices, Sunnyvale, CA). A curve of deacetylated standard (Biomol, Cat. #KI-142; made from 100 μM with 1:2 dilution and 10 doses, 6 μl) allowed the conversion of the fluorescent signal into micromoles of deacetylated product. All experiments were performed in triplicate. The IC50s were calculated by fitting the experimental data to dose-response curve. DMSO was used as negative control; Trichostatin A (Biomol Cat. #GR-309) was used as positive control inhibitor.
(§4) Enzymatic activity assays were carried out in 11 HDAC enzymes, including HDAC6.

[3] = target: human HDAC9 (Homo sapiens, UniProt Q9UKV0); assay: HDAC9 enzymatic activity assay (fluorogenic peptide); type: biochemical; conditions: 10-dose, 3-fold serial dilution, triplicate
Procedure: as §1, §2

[4] = target: T3, human HDAC7 (Homo sapiens, UniProt Q8WUI4); assay: HDAC7 enzymatic activity assay (fluorogenic peptide); type: biochemical; conditions: 10-dose, 3-fold serial dilution, triplicate
T3 construct: amino acids 518 end with GST N-terminal tag, MW=78 kDa; GST (N); purchased BioMol, Hamburg, Germany; host or cells: baculovirus expression system
T3 sequence (Q8WUI4 479-952 limits assumed): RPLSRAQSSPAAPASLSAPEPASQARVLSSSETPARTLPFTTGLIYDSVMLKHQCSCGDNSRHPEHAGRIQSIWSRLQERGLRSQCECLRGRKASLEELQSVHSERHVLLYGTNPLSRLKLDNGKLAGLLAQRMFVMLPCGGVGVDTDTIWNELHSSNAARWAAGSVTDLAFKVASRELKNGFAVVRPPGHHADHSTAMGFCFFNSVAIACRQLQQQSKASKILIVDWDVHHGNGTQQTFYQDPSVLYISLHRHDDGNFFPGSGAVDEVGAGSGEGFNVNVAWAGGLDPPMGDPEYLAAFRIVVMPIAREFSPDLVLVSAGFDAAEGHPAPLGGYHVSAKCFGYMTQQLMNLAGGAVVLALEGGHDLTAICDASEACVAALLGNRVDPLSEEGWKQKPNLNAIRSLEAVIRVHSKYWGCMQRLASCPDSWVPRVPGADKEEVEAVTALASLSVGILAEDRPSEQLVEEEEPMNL
Procedure: as §1, §3, §4

[5] = target: T4, human HDAC6 (Homo sapiens, UniProt Q9UBN7); assay: HDAC6 enzymatic activity assay (fluorogenic peptide); type: biochemical; conditions: for pIC50: 10-dose, 3-fold serial dilution, triplicate
T4 construct: GST (N); purchased BioMol SE-508; host or cells: baculovirus / Sf9 cells
T4 sequence (Q9UBN7 1-1215): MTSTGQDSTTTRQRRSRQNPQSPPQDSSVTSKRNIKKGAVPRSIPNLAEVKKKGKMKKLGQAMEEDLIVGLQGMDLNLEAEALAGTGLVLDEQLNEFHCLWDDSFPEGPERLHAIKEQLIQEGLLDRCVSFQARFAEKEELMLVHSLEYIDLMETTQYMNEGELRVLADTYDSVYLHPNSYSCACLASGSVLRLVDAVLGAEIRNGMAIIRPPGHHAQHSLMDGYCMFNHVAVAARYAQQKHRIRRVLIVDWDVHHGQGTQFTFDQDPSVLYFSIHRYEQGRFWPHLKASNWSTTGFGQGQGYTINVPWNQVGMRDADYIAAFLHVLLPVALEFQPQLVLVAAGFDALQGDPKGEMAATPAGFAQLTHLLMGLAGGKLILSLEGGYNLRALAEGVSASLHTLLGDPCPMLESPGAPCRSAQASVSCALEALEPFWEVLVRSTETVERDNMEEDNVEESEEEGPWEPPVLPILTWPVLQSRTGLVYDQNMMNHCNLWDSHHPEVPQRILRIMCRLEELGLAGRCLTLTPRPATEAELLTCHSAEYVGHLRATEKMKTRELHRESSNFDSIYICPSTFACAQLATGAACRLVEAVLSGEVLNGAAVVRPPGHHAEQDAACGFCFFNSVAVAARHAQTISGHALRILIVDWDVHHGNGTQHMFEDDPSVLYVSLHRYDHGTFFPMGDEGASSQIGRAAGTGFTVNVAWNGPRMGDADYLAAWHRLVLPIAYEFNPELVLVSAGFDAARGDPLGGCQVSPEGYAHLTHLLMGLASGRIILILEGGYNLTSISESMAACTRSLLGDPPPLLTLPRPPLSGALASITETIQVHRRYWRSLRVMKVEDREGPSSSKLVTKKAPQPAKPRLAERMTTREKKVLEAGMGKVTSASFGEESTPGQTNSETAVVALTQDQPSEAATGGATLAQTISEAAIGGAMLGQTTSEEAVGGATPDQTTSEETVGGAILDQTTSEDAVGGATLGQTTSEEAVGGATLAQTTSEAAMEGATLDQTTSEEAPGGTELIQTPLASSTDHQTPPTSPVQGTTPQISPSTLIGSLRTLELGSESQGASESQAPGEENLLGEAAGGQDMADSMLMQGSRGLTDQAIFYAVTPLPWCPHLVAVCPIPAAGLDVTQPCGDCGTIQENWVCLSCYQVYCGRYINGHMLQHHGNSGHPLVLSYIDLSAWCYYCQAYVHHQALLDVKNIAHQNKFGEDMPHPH
Procedure: as §1, §3, §4

[6] = tested on: HDAC enzymes; assay: Enzymatic activity assays in 11 HDAC enzymes (statements on the panel); type: biochemical, human; conditions: HDAC enzymes other than HDAC6
Procedure: as §1, §3, §4

T2 sequence (Q92769 whole entry): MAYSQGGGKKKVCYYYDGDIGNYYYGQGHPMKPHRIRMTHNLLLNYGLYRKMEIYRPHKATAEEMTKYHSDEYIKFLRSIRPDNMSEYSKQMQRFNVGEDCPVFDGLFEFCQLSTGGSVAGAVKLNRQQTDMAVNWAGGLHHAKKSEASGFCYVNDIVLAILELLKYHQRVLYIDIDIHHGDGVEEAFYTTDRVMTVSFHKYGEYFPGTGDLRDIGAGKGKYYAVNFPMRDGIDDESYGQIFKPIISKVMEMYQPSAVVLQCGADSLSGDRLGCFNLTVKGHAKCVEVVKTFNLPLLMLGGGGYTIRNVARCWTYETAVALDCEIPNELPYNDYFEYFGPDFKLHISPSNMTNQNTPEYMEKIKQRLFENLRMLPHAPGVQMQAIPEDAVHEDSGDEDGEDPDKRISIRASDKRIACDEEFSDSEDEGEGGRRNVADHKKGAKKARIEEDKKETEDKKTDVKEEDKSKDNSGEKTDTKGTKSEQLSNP
Chain of human HDAC9 (Q9UKV0 604-1066 isoform Q9UKV0-5): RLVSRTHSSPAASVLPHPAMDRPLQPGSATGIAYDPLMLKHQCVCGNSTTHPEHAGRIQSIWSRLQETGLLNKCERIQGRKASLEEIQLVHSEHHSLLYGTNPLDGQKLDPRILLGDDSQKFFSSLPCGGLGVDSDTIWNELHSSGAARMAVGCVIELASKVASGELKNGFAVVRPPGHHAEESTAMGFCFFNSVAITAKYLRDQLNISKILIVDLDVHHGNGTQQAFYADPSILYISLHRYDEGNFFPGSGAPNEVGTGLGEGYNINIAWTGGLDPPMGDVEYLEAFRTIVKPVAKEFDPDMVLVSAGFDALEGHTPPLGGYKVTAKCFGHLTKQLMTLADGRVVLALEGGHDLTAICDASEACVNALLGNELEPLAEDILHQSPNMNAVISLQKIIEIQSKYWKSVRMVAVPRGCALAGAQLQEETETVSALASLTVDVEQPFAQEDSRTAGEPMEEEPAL
T1 sequence (O15379 whole entry): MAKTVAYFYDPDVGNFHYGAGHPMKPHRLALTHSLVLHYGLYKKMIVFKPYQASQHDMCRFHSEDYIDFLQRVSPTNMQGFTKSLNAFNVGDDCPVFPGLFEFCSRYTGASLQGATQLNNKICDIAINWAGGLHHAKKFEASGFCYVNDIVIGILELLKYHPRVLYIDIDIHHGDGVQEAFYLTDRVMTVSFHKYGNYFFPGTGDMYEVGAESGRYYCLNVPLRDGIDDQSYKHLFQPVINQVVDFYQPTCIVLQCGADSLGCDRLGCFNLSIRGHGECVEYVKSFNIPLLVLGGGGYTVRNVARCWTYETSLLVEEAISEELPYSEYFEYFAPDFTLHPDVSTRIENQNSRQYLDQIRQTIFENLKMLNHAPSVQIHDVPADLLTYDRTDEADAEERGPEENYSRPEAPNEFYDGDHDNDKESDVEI
T1 sequence (Q9Y618 395-489 partner limits assumed): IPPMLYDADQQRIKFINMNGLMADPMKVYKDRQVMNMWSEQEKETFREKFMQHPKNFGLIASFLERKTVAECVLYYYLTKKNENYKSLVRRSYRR

## C[C@H](CCC(=O)NCc1ccc(C(=O)NO)cc1)[C@H]1CC[C@H]2[C@@H]3[C@@H](O)C[C@@H]4C[C@H](O)CC[C@]4(C)[C@H]3CC[C@]12C [Compound Ia]
[1]
  pIC50: 5.08
[2]
  pIC50: 4.73
[3]
  pIC50: 4.87
[4]
  pIC50: 5.13
[5]
  selectivity and inhibitory capacity with respect to HDAC6 enzyme: nanomolar range
  pIC50: 7.24
[5]; matches IC50 HDAC1 / IC50 HDAC6
  HDAC6 selectivity proportion: 174
[6]
  inhibitory capacity with respect to the rest of the HDAC enzymes: micromolar range

## C[C@H](CCC(=O)NCC(=O)NCc1ccc(C(=O)NO)cc1)[C@H]1CC[C@H]2[C@@H]3[C@@H](O)C[C@@H]4C[C@H](O)CC[C@]4(C)[C@H]3CC[C@]12C [Ib, 4-((2-((R)-4 ((3R,5S,7S,8R,9S,10S,13R,14S,17R)-3,7-dihydroxy-10,13-dimethylhexadecahydro-1H-cyclopenta[a]phenanthren-17-yl)pentanamide)acetamido)methyl)-N-hydroxybenzamide]
[1]
  pIC50: 5.00
[2]
  pIC50: 4.88
[3]
  pIC50: 4.94
[4]
  pIC50: 4.75
[5]
  selectivity and inhibitory capacity with respect to HDAC6 enzyme: nanomolar range
  pIC50: 7.25
[6]
  inhibitory capacity with respect to the rest of the HDAC enzymes: micromolar range
